These results are taken from patent US11549123B2, “Plant EPSP synthases and methods of use” (PIONEER HI-BRED INTERNATIONAL, INC., priority 2015, dated 2023).

In this experiment the target is T1, Zea mays EPSPS variant WT-FS-E (102A 302S 391G 438R) (Zea mays, UniProt O24566, E301S/E390G/G101A/V437R).
T1 sequence (O24566 with tags, fused parts or gaps G101A/E301S/E390G/V437R): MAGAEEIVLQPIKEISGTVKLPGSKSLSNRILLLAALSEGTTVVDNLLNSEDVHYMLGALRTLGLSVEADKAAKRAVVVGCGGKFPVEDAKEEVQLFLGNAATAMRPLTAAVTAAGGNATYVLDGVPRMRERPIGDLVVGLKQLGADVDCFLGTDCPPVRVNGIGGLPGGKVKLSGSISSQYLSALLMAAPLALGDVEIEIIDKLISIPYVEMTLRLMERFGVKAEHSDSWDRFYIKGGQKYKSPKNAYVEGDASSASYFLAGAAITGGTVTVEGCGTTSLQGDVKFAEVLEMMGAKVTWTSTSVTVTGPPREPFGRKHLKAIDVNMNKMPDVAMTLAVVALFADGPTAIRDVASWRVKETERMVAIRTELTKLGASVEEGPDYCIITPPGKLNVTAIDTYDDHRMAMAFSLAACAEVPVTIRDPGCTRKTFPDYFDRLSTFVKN
As to the kind of experiment: EPSPS substrate saturation kinetics, WT-FS-E. It counts as biochemical. How it is done:
EPSPS activity was determined by quantifying the phosphate generated from the EPSPS reaction. Release of inorganic phosphate was coupled to reaction with 2-amino-6-mercapto-7-methylpurine ribonucleoside, catalyzed by purine-nucleoside phosphorylase (M R Webb, Proc. Natl. Acad. Sci. 89:4884-4887, 1992). The absorbance change that occurs was monitored at 360 nm, where the extinction is 11,200 M^−1 cm^−1, with a Spectramax plate reader (Molecular Devices). To determine kinetic parameters, the varied substrate was present at seven concentrations (the eighth being the blank, containing no substrate) ranging from 4 to 400 uM and the unvaried substrate present at saturation. Six microliters of 50-fold concentrated stock solutions of the varied substrate were placed in the wells of the 96-well assay plate and reactions were started with the addition of a mixture containing 25 mM Hepes, pH 7, 100 mM KCl, 0.3 mM 2-amino-6-mercapto-7-methylpurine ribonucleosde, 1 uM (1 unit/ml) purine-nucleoside phosphorylase (Sigma N8264) and 200 uM of the non-varied substrate. Reactions were monitored with a Spectramax plate reader. […] KI was then calculated from the following form of the Michaelis-Menten equation for competitive inhibition: KI=KM[I]/(KM app−KM) KM approximates the dissociation constant of the enzyme-substrate complex while kcat is the rate of conversion of substrate to product when the substrate concentration is saturating. kcat/KM is a widely accepted parameter for catalytic efficiency when substrate concentration is low (˜KM). […] The parameter kcat/KM×KI is used to quantify both catalytic efficiency and insensitivity and thus the overall fitness of the enzyme. […]
The vector DNA of the library was transformed into the BL21(DE3) Tuner AroA knockout strain and the cells were plated onto M9 medium containing 50 mM glyphosate. A small aliquot of the transformed cells was plated on LB, by which it was determined that 1.1×10^8 colony forming units, or 20% of the theoretical library size, were plated and screened. […]

Turning to `C=C(OP(=O)(O)O)C(=O)O` [PEP, phosphoenolpyruvate], the “improvement in KM for PEP” value (compared to G102A alone) is 2 fold. Consider `O=C(O)CNCP(=O)(O)O` [glyphosate, N-phosphonomethylglycine], for which the Ki turned out to be 1.15 mM. Besides, the “(kcat/KM)*KI” value (PEP as substrate, glyphosate as inhibitor) was found to be 2763.

The term Ki denotes the dissociation constant of the complex between target and ligand, obtained from inhibition or displacement. Low values mean a stronger hold on the target, high ones a looser hold on the target.
